Key:
[1] = pH of bath solution after dissolving nocistatin; assay type: physicochemical; conditions: standard bath solution, 10 mM HEPES, initial pH 7.4, standard pH meter
Procedure: (§1) Rat nocistatin ([…]) has been purchased from ProteoGenix (Schiltigheim, France) with a guaranteed purity of >95%. It was delivered as a lyophilized powder. For measurements with oocytes, it was dissolved in standard bath solution (pH 7.4) to obtain a concentration of 1 mM. This solution was further diluted to 0.5 mM; for one half of this solution, the pH was adjusted to pH 7.4, for the other half it was not adjusted. For measurements with CHO cells, the peptide was dissolved in bath solution to obtain a concentration of 0.25 mM; the pH was adjusted to 7.4. The solutions were freshly prepared before use.
We dissolved nocistatin in bath solution containing 10 mM HEPES with a pH of 7.4 (see Methods); this is the same buffer at the same concentration that was previously used in the study reporting activation of ASICs by nocistatin [18]. Nocistatin dissolved readily, but, as expected for a highly acidic peptide with a pI of 3.7, the pH of the solution dropped to pH values between 6.7 and 4.15 when we dissolved nocistatin to obtain a final concentration between 0.25 and 1 mM (Table 1). We titrated nocistatin-containing solutions using NaOH until we reached again neutral pH of 7.4. For comparison, we also tested a solution containing 0.5 mM nocistatin without adjustment of the pH value.

rat ASIC1a [2] = test: Two electrode voltage-clamp in Xenopus oocytes (ASIC1a activation); assay type: cell-based
Procedure: ASIC1a cRNA synthesis and preparation of oocytes was described previously. Briefly, oocytes were removed from anesthetized frogs; frogs were killed after final oocyte collection by decapitation. Animal care and surgery of frogs were conducted under protocols approved by the State Office for Nature, Environment, and Consumer Protection (LANUV) of North Rhine-Westphalia (NRW), Germany, and were performed in accordance with LANUV NRW guidelines. ASIC1a cRNA (0.016 ng) was injected into stage V or VI oocytes. Oocytes were kept in OR-2 medium (in mM, 82 NaCl, 2.5 KCl, 1 Na2HPO4, 4-(2-hydroxyethyl)-1-piperazineethanesulfonic acid (HEPES), 1.0 MgCl2, 1 CaCl2, and 0.5 mg/mL polyvinylpyrrolidone) at 19 °C. Two electrode voltage-clamp measurements were performed as described previously. Whole cell currents were recorded 24–48 h post injection at room temperature (20–25 °C) with a TurboTec 03X amplifier (npi Electronic, Tamm, Germany). Fast solution exchange was performed by a programmable pipetting robot (screening tool; npi Electronic). Data acquisition was controlled using CellWorks 5.1.1 (npi Electronic). Data were filtered at 20 Hz and acquired at 1 kHz. Holding potential was −70 mV. Standard bath solution for two electrode voltage-clamp measurements contained (in mM) 140 NaCl, 1.8 CaCl2, 1 MgCl2, and 10 HEPES.
as §1
Similar to the previous study, we expressed rat ASIC1a in Xenopus laevis oocytes and performed two electrode voltage-clamp to study activation of ASIC1a by nocistatin.
Current trace recorded from a rASIC1a-expressing oocyte stimulated repetitively with pH 6.0 for 20 s (black bars); conditioning pH 7.4 was applied for 60 s. Rat nocistatin (rNS, 0.5 mM) in pH-unadjusted (pH 5.1, red bar) und pH-adjusted (pH 7.4, green bar) conditioning solution was applied for 20 s.

rat ASIC1a [3] = test: Whole cell patch-clamp in transfected CHO cells (ASIC1a activation); assay type: cell-based
Procedure: Chinese hamster ovary (CHO) cells were maintained in Ham’s Nutrient Mixture F12 (Sigma, St. Louis, MI, USA) together with 10% fetal bovine serum (FBS; Sigma, St. Louis, MI, USA) and passaged regularly. Cells were seeded and transfected after 1 day with 1 µg rat ASIC1a cDNA in pCDNA3.1 and 1 µg GFP using X-treme GENE (Sigma, St. Louis, MI, USA). Cells were patched 48 h after transfection.
We performed whole cell patch-clamp measurements on cultured CHO cells, using patch pipettes of 4–6 MΩ resistance filled with (in mM) 10 NaCl, 121 KCl, 2 MgCl2, 5 EGTA, 10 HEPES, pH 7.25. The bath solution contained (in mM) 128 NaCl, 5.4 KCl, 1 MgCl2, 2 CaCl2, 10 HEPES, pH 7.4 with NaOH. Osmolarity was adjusted with glucose to 280 mOsmol/L for the pipette solution and to 290 mOsmol/L for the extracellular solution. Data were acquired using an Axon Digidata 1440A and an Axon Axopatch 200B and recorded and analyzed using the pClamp Software (Axon Instruments, Molecular Devices, Sunnyvale, San Jose, CA, USA).
as §1
(A) current trace of a CHO cell transfected with rASIC1a cDNA stimulated with pH 6.0 (black bar) or with rNS (0.25 mM, pH 7.4, green bar) for 10 s. Conditioning pH 7.4. This trace is representative for 6 similar measurements. (B) as in A, ASIC1a-expressing CHO cell was stimulated repetitively with pH 6.0 for 10 s (black bars). rNS (0.25 mM, pH 7.4, green bar) was applied for 10 s prior to pH 6.0 stimulation. This trace is representative for 3 similar measurements.

ASIC2a = conditions: ref [18], cited from earlier work
Procedure: (§2) Indeed, several neuropeptides modulate ASICs by directly binding to these ionotropic receptors. For example, dynorphin opioid neuropeptides bind to the acidic pocket of ASIC1a and shift steady-state desensitization curves to higher proton concentrations. RFamide neuropeptides bind to the central vestibule of ASIC3 [14] and delay its desensitization. […] But ASIC2a has a low proton sensitivity with an EC50 of ~4.0 [21, 22]. Because 1 mM noci ...

ASIC1b = conditions: cited from earlier work
Procedure: as §2

ASIC3 [4] = conditions: cited from earlier work
Procedure: as §2

ASIC1a = conditions: ref [18], cited from earlier work
Description: as §2, with “Strikingly, it was reported that the apparent nocistatin affi” for “But ASIC2a has a low proton sensitivity with an EC50 of ~4.0 [21, 22]. Because 1 mM noci”

ASIC3 [5] = conditions: ref [16],[17]; cited from earlier work
Description: Indeed, several neuropeptides modulate ASICs by directly binding to these ionotropic receptors. For example, dynorphin opioid neuropeptides bind to the acidic pocket of ASIC1a and shift steady-state desensitization curves to higher proton concentrations. RFamide neuropeptides bind to the central vestibule of ASIC3 [14] and delay its desensitization.

[6] = test system: FMRFamide-activated Na^+ channel (FaNaC); conditions: cited from earlier work
Procedure: For example, some DEG/ENaCs from invertebrates are directly gated by neuropeptides. The FMRFamide-activated Na^+ channel (FaNaC) from the snail Helix is activated by the neuropeptide FMRFamide with an EC50 of ~2 μM [9], Hydra Na^+ channels (HyNaCs) are activated by Hydra-RFamides with an EC50 of 0.05–10 μM [10], and the myoinhibitory peptide-gated ion channel (MGIC) from the annelid Platynereis is activated by myoinhibitory peptides with an EC50 of 1–5 μM [11]. Therefore, neuropeptides are attractive candidates also for ASIC agonists. Of note, these peptide-gated ion channels desensitize ...

[7] = 1 mM nocistatin vs pH 5.5, ref [18]

MPRVRSVVQARDAEPEADAEPVADEADEVEQKQLQ [nocistatin, endogenous neuropeptide with 35 amino acids; rat nocistatin purchased from ProteoGenix, purity >95%]
measured pH value after dissolving nocistatin ([1]; 0.25 mM nocistatin): 6.7 | measured pH value after dissolving nocistatin ([1]; 0.5 mM nocistatin): 5.1 | measured pH value after dissolving nocistatin ([1]; 1.0 mM nocistatin): 4.15 | ASIC1a current on pH 6.0 application immediately after nocistatin at pH 5.1 (desensitization) (rat ASIC1a [2]; 0.5 mM nocistatin pH 5.1, then pH 6.0, holding potential −70 mV, representative for 5 measurements): did not elicit currents, indicating that ASIC1a was completely desensitized | ASIC current on pH 6.0 application immediately after nocistatin at pH 7.4 (desensitization) (rat ASIC1a [2]; 0.5 mM nocistatin pH 7.4, then pH 6.0, holding potential −70 mV, representative for 5 measurements): elicited ASIC currents with a full amplitude | ASIC1a current elicited by nocistatin, pH not adjusted (rat ASIC1a [2]; 0.5 mM, pH 5.1, 20 s, conditioning pH 7.4, holding potential −70 mV, representative for 5 measurements): elicited ASIC1a currents with an amplitude and kinetics similar to the currents elicited by pH 6.0 | ASIC1a current elicited by nocistatin, pH adjusted (rat ASIC1a [2]; 0.5 mM, pH adjusted to 7.4, 20 s, holding potential −70 mV, representative for 5 measurements): elicited no ASIC1a currents | direct activation of ASIC1a (summary) (rat ASIC1a [2]; up to 500 μM nocistatin, Xenopus oocytes): did not directly activate ASIC1a | ASIC1a current on pH 6.0 application following nocistatin (rat ASIC1a [3]; 0.25 mM nocistatin pH 7.4 for 10 s, then pH 6.0 for 10 s, representative for 3 measurements): induced canonical ASIC1a currents | current elicited by nocistatin at neutral pH (rat ASIC1a [3]; 0.25 mM, pH 7.4, 10 s, conditioning pH 7.4, representative for 6 measurements): elicited no current | direct activation of ASIC1a (summary) (rat ASIC1a [3]; CHO cells, text says up to 500 μM nocistatin): did not directly activate ASIC1a | current amplitude, 1 mM nocistatin compared with acidification from 7.4 to 5.5 (ASIC2a; 1 mM nocistatin vs acidification from 7.4 to 5.5, ASIC2a): eight times larger current amplitudes | activation by 1 mM nocistatin (ASIC2a; 1 mM, ASIC2a): activated | direct agonism (ASIC2a; ASIC2): direct agonist | current amplitude, 1 mM nocistatin compared with pH 5.5 (ASIC1b; [7]): similar | activation by 1 mM nocistatin (ASIC1b; 1 mM, ref [18]): activated | direct agonism (ASIC1b; ref [18]): direct agonist | current amplitude, 1 mM nocistatin compared with pH 5.5 (ASIC3 [4]; [7]): similar | activation by 1 mM nocistatin (ASIC3 [4]; 1 mM, ref [18]): activated | direct agonism (ASIC3 [4]; ref [18]): direct agonist | direct agonism (ASIC1a; ASIC1a): direct agonist | desensitization kinetics of nocistatin-induced currents (ASIC1a; compared with proton-induced currents): virtually identical to the kinetics of proton-induced currents | EC50 (ASIC1a; read-out: EC50 (affinity of nocistatin for ASIC1a)): ~250 µM

endomorphin-1
effect on ASIC3 desensitization (ASIC3 [5]): slow desensitization of ASIC3

FMRFamide
desensitization time constant ([6]; desensitize only partially and slowly, ref [9],[10],[11]): > 10 s | EC50 ([6]; ref [9]): ~2 µM

endomorphin-2
effect on ASIC3 desensitization (ASIC3 [5]): slow desensitization of ASIC3

Reference: PMC8070164 (Biomolecules, 2021)
